Test results reported in PubChem BioAssay (NCI).
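1) Cells in 96-well plates. 2) Compound, 48 h, 5 concentrations. 3) Linear interpolation between surrounding doses. 4) Unreached endpoint = highest concentration. TGI is the concentration that stops growth completely.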

How the values were obtained:
Assay in all cases: DTP human tumour cell line panel, 48 h
[1] = tested on: NCI-H522 lung
[2] = tested on: SK-OV-3 ovarian
[3] = tested on: MCF7 breast
[4] = tested on: NCI-H460 lung
[5] = tested on: K-562 leukemia
[6] = tested on: TK-10 renal
[7] = tested on: SNB-75 CNS
[8] = tested on: NCI-H23 lung
[9] = tested on: COLO 205 colon
[10] = tested on: CCRF-CEM leukemia
[11] = tested on: MOLT-4 leukemia
[12] = tested on: A549 NSCLC
[13] = tested on: ACHN renal
[14] = tested on: IGROV1 ovarian
[15] = tested on: HOP-92 NSCLC
[16] = tested on: UACC-257 melanoma
[17] = tested on: UACC-62 melanoma
[18] = tested on: UO-31 renal
[19] = tested on: OVCAR-3 ovarian
[20] = tested on: SK-MEL-2 melanoma
[21] = tested on: MDA-MB-231 breast
[22] = tested on: SF-268 CNS
[23] = tested on: HOP-62 NSCLC
[24] = tested on: HS 578T breast
[25] = tested on: DU-145 prostate
[26] = tested on: KM12 colon
[27] = tested on: OVCAR-4 ovarian
[28] = tested on: HCT-116 colon
[29] = tested on: OVCAR-5 ovarian
[30] = tested on: SN12C renal
[31] = tested on: LOX IMVI melanoma
[32] = tested on: HCT-15 colon
[33] = tested on: RXF 393 renal
[34] = tested on: SF-539 CNS
[35] = tested on: T-47D breast
[36] = tested on: SW-620 colon
[37] = tested on: NCI-H226 lung
[38] = tested on: SNB-19 CNS
[39] = tested on: HT29 colon
[40] = tested on: NCI/ADR-RES ovarian
[41] = tested on: PC-3 prostate
[42] = tested on: EKVX NSCLC
[43] = tested on: HCC-2998 colon
[44] = tested on: SF-295 CNS
[45] = tested on: MDA-MB-435
[46] = tested on: OVCAR-8 ovarian
[47] = tested on: SK-MEL-28 melanoma
[48] = tested on: CAKI-1 renal
[49] = tested on: SK-MEL-5 melanoma
[50] = tested on: 786-0 renal
[51] = tested on: MDA-N
[52] = tested on: U251 CNS
[53] = tested on: RPMI-8226 leukemia
[54] = tested on: M14 melanoma
[55] = tested on: MALME-3M melanoma
[56] = tested on: A498 renal
[57] = tested on: SR leukemia
[58] = tested on: HL-60(TB) leukemia

Measured: TGI

COC(=O)C1Cc2c([nH]c3ccccc23)-c2[nH]c3ccccc3c2CC(NC(C)=O)C(=O)NCC(=O)N1 (stereo not given)
> 100 µM: [1] | [2] | [3] | [4] | [5] | [6] | [7] | [8] | [9] | [10] | [11] | [12] | [13] | [14] | [15] | [16] | [17] | [18] | [19] | [20] | [21] | [22] | [23] | [24] | [25] | [26] | [27] | [28] | [29] | [30] | [31] | [32] | [33] | [34] | [35] | [36] | [37] | [38] | [39] | [40] | [41] | [42] | [43] | [44] | [45] | [46] | [47] | [48] | [49] | [50] | [51] | [52] | [53]

CCCCCOP(=O)(OCCCCC)C(NC(C)=O)(C(=O)OCC)C(F)(F)F (stereo not given)
> 100 µM: [1] | [2] | [3] | [54] | [5] | [7] | [10] | [11] | [13] | [17] | [18] | [21] | [22] | [23] | [25] | [55] | [28] | [30] | [32] | [34] | [35] | [56] | [39] | [42] | [43] | [57] | [45] | [58] | [47] | [51] | [52] | [53]
